Data taken from US10703733B2, “MCL-1 inhibitors” (Gilead Sciences, Inc., priority 2018, dated 2020).
Like-named read-outs stand apart in the source and are kept apart here.

Assays:
[1] = target: MCL-1/Bim interaction (recombinant human MCL-1 protein, residues 171-327; biotinylated human Bim peptide, residues 51-76) (Homo sapiens (Human), UniProt Q07820); test: MCL-1/Bim Binding AlphaLISA Assay; details: 0.0625 nM 6xHis-Mcl-1 (171-327), 0.0625 nM biotinylated-Bim peptide
In short: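 AlphaLISA with 0.0625 nM His-tagged MCL-1 and 0.0625 nM biotin-Bim peptide in 20 mM Hepes pH 7.5, 150 mM NaCl, 0.002% Brij 35, 1 mM DTT, 0.01% BSA. Compound preincubated 1 h with MCL-1, Bim added for 2 h, then acceptor and donor beads 1 h each.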

[2] = tested on: SKBR3 cells; test: SKBR3 Cell Viability Assay (CellTiter Glo); type: cell-based; details: CellTiter Glo luminescence, read-out: MCL-1 CV SKBR3 EC50
In short: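 SKBR3 cells (6,000/well) in McCoy 5A + 10% FBS exposed to serially diluted compound for 72 h at 37° C., 5% CO2. Viability by CellTiter Glo luminescence; % inhibition normalized to DMSO (negative) and 10 μM puromycin (positive).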

MCL-1/Bim interaction (recombinant human MCL-1 protein, residues 171-327; biotinylated human Bim peptide, residues 51-76), sequence (Q07820 171-327): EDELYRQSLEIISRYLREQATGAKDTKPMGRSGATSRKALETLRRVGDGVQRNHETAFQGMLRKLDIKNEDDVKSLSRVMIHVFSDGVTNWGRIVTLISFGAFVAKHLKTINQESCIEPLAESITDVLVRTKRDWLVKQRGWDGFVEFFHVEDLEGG

Row | IC50 [1] | EC50 ([2]; Homo sapiens, SK-BR-3, 72 h) | EC50 ([2]; 72 hours) | Compound
1 | 0.031 nM | 16.1 nM |  | CO[C@H]1/C=C/C[C@H](C)C[S@@](=O)(NC(=O)c2cc(CN3CCOCC3)n(C)c2)=NC(=O)c2ccc3c(c2)N(C[C@@H]2CC[C@H]21)C[C@@]1(CCCc2cc(Cl)ccc21)CO3 [Example 308]
2 | 0.098 nM | 146 nM |  | CNC(=O)N[S@@]1(=O)=NC(=O)c2ccc3c(c2)N(C[C@@H]2CC[C@H]2[C@@H](OC)/C=C/C[C@H](C)C1)C[C@@]1(CCCc2cc(Cl)ccc21)CO3 [Example 454]
3 | 0.058 nM | 47.5 nM |  | COc1nn(C)cc1C(=O)N[S@@]1(=O)=NC(=O)c2ccc3c(c2)N(C[C@@H]2CC[C@H]2[C@@H](OC)/C=C/[C@H](O)[C@H](C)[C@H]1C)C[C@@]1(CCCc2cc(Cl)ccc21)CO3 [Example 374]
4 | 0.1 nM | 256 nM |  | CO[C@H]1/C=C/CCC[S@@](=O)(NC(=O)CCc2ccncc2)=NC(=O)c2ccc3c(c2)N(C[C@@H]2CC[C@H]21)C[C@@]1(CCCc2cc(Cl)ccc21)CO3 [Example 41]
5 | 0.048 nM | 83.8 nM |  | CNCCO[C@H]1/C=C/[C@H](OC)[C@@H]2CC[C@H]2CN2C[C@@]3(CCCc4cc(Cl)ccc43)COc3ccc(cc32)C(=O)N=[S@](=O)(NC(=O)c2cn(C)nc2OC)C[C@H]1C [Example 386]
6 | 0.147 nM | 297 nM |  | CO[C@H]1/C=C/C[C@H](C)C[S@@](=O)(NC(=O)c2cnoc2)=NC(=O)c2ccc3c(c2)N(C[C@@H]2CC[C@H]21)C[C@@]1(CCCc2cc(Cl)ccc21)CO3 [Example 409]
7 | 0.162 nM | 161 nM |  | COC[C@@H]1CCN(C(=O)N[S@@]2(=O)=NC(=O)c3ccc4c(c3)N(C[C@@H]3CC[C@H]3[C@@H](OC)/C=C/C[C@H](C)C2)C[C@@]2(CCCc3cc(Cl)ccc32)CO4)C1 [Example 256]
8 | 0.039 nM | 43.5 nM |  | CO[C@H]1/C=C/C[C@H](C)C[S@@](=O)(NC(=O)N[C@@H]2C[C@]2(C)OC)=NC(=O)c2ccc3c(c2)N(C[C@@H]2CC[C@H]21)C[C@@]1(CCCc2cc(Cl)ccc21)CO3 (single isomer, unassigned) [Example 312]
9 | 0.047 nM | 73.2 nM |  | CO[C@H]1/C=C/C[C@H](C)C[S@@](=O)(NC(=O)N[C@H]2CCOC2)=NC(=O)c2ccc3c(c2)N(C[C@@H]2CC[C@H]21)C[C@@]1(CCCc2cc(Cl)ccc21)CO3 [Example 112]
10 | 0.026 nM | 33.7 nM |  | CO[C@H]1/C=C/C[C@H](C)C[S@@](=O)(NC(=O)N2CC(N3CCOCC3)C2)=NC(=O)c2ccc3c(c2)N(C[C@@H]2CC[C@H]21)C[C@@]1(CCCc2cc(Cl)ccc21)CO3 [Example 349]
11 | 0.136 nM | 45 nM |  | CO[C@H]1/C=C/C[C@H](C)C[S@@](=O)(NC(=O)c2cc3n(c2)CCc2c-3cnn2C)=NC(=O)c2ccc3c(c2)N(C[C@@H]2CC[C@H]21)C[C@@]1(CCCc2cc(Cl)ccc21)CO3 [Example 208]
12 | 0.041 nM | 99.2 nM |  | CO[C@H]1/C=C/C[C@H](C)C[S@@](=O)(NC(=O)c2cc(CO)n(C)c2)=NC(=O)c2ccc3c(c2)N(C[C@@H]2CC[C@H]21)C[C@@]1(CCCc2cc(Cl)ccc21)CO3 [Example 185]
13 | 0.044 nM | 118 nM |  | COc1nn(C)cc1C(=O)N[S@@]1(=O)=NC(=O)c2ccc3c(c2)N(C[C@@H]2CC[C@H]2[C@@H](OC)/C=C/[C@H](OCC(=O)N(C)C)[C@H](C)C1)C[C@@]1(CCCc2cc(Cl)ccc21)CO3 [Example 401]
14 | 0.081 nM | 264 nM |  | COc1ccc(C(=O)N[S@@]2(=O)=NC(=O)c3ccc4c(c3)N(C[C@@H]3CC[C@H]3[C@@H](OC)/C=C/C[C@H](C)C2)C[C@@]2(CCCc3cc(Cl)ccc32)CO4)cc1 [Example 269]
15 | 0.12 nM | 96.8 nM |  | COC[C@@H]1CC[C@H]1NC(=O)N[S@@]1(=O)=NC(=O)c2ccc3c(c2)N(C[C@@H]2CC[C@H]2[C@@H](OC)/C=C/C[C@H](C)C1)C[C@@]1(CCCc2cc(Cl)ccc21)CO3 [Example 307]
16 | 0.05 nM | 50.8 nM |  | CO[C@H]1/C=C/C[C@H](C)C[S@@](=O)(NC(=O)NC2CC2)=NC(=O)c2ccc3c(c2)N(C[C@@H]2CC[C@H]21)C[C@@]1(CCCc2cc(Cl)ccc21)CO3 [Example 144]
17 | 0.129 nM | 261 nM |  | CO[C@H]1/C=C/C[C@H](C)C[S@@](=O)(NC(=O)c2cc3c(s2)CCOC3)=NC(=O)c2ccc3c(c2)N(C[C@@H]2CC[C@H]21)C[C@@]1(CCCc2cc(Cl)ccc21)CO3 [Example 429]

Row | IC50 [1] | EC50 ([2]; Homo sapiens, SK-BR-3, 72 h) | EC50 ([2]; 72 hours) | Compound
18 | 0.491 nM | 104 nM |  | CO[C@H]1/C=C/C[C@H](C)[C@@H](C)[S@@](=O)(NC(=O)c2cc3n(c2)CCOC3)=NC(=O)c2ccc3c(c2)N(C[C@@H]2CC[C@H]21)C[C@@]1(CCCc2cc(Cl)ccc21)CO3 [Example 137]
19 | 0.101 nM | 172 nM |  | CO[C@H]1/C=C/C[C@H](C)C[S@@](=O)(NC(=O)c2cc(C)sn2)=NC(=O)c2ccc3c(c2)N(C[C@@H]2CC[C@H]21)C[C@@]1(CCCc2cc(Cl)ccc21)CO3 [Example 444]
20 | 0.045 nM | 282 nM |  | CO[C@H]1/C=C/C[C@H](C)C[S@@](=O)(NC(=O)N[C@H]2C[C@H](O)C2)=NC(=O)c2ccc3c(c2)N(C[C@@H]2CC[C@H]21)C[C@@]1(CCCc2cc(Cl)ccc21)CO3 [Example 452]
21 | 0.035 nM | 36.6 nM |  | COC1CCN(C(=O)N[S@@]2(=O)=NC(=O)c3ccc4c(c3)N(C[C@@H]3CC[C@H]3[C@@H](OC)/C=C/C[C@H](C)C2)C[C@@]2(CCCc3cc(Cl)ccc32)CO4)CC1 [Example 320]
22 | 0.036 nM |  | 29.6 nM | CO[C@H]1/C=C/C[C@H](C)C[S@@](=O)(NC(=O)N[C@H]2C[C@@H]2OC)=NC(=O)c2ccc3c(c2)N(C[C@@H]2CC[C@H]21)C[C@@]1(CCCc2cc(Cl)ccc21)CO3 (single isomer, unassigned) [Example 195]
23 | 0.122 nM | 97.8 nM |  | CC[C@H]1C/C=C/[C@H](OC)[C@@H]2CC[C@H]2CN2C[C@@]3(CCCc4cc(Cl)ccc43)COc3ccc(cc32)C(=O)N=[S@](=O)(NC(=O)c2cn(C)nc2OC)C1 [Example 220]
24 | 0.092 nM | 96.7 nM |  | CO[C@H]1/C=C/C[C@H](C)C[S@@](=O)(NC(=O)N[C@H]2C[C@@](O)(C(F)(F)F)C2)=NC(=O)c2ccc3c(c2)N(C[C@@H]2CC[C@H]21)C[C@@]1(CCCc2cc(Cl)ccc21)CO3 [Example 453]
25 | 0.031 nM | 30.9 nM |  | COCC1CN(C(=O)N[S@@]2(=O)=NC(=O)c3ccc4c(c3)N(C[C@@H]3CC[C@H]3[C@@H](OC)/C=C/C[C@H](C)C2)C[C@@]2(CCCc3cc(Cl)ccc32)CO4)C1 [Example 346]
26 | 0.07 nM | 20 nM |  | CO[C@H]1/C=C/[C@H](OC)[C@H](C)C[S@@](=O)(NC(=O)c2cc(CN3CCN4CCOC[C@@H]4C3)n(C)c2)=NC(=O)c2ccc3c(c2)N(C[C@@H]2CC[C@H]21)C[C@@]1(CCCc2cc(Cl)ccc21)CO3 [Example 399]
27 | 0.086 nM | 69.5 nM |  | CCn1cc(C(=O)N[S@@]2(=O)=NC(=O)c3ccc4c(c3)N(C[C@@H]3CC[C@H]3[C@@H](OC)/C=C/C[C@H](C)[C@H]2C)C[C@@]2(CCCc3cc(Cl)ccc32)CO4)cn1 [Example 153]
28 | 0.041 nM | 84.7 nM |  | CO[C@H]1/C=C/C[C@H](C)C[S@@](=O)(NC(=O)N2CC(n3ccnc3)C2)=NC(=O)c2ccc3c(c2)N(C[C@@H]2CC[C@H]21)C[C@@]1(CCCc2cc(Cl)ccc21)CO3 [Example 348]
29 | 0.042 nM | 85 nM |  | CO[C@H]1/C=C/C[C@H](C)C[S@@](=O)(NC(=O)N2CCN(C(C)=O)CC2)=NC(=O)c2ccc3c(c2)N(C[C@@H]2CC[C@H]21)C[C@@]1(CCCc2cc(Cl)ccc21)CO3 [Example 247]
30 | 0.106 nM |  | 34 nM | COc1nn(C)cc1C(=O)N[S@@]1(=O)=NC(=O)c2ccc3c(c2)N(C[C@@H]2CC[C@H]2[C@@H](OC)/C=C/[C@H](S(=O)(=O)c2ccc(C)cc2)[C@H](C)C1)C[C@@]1(CCCc2cc(Cl)ccc21)CO3 [Example 377]
31 | 0.1 nM | 775 nM |  | CO[C@H]1/C=C/CCC[S@@](=O)(NC(=O)CCn2cc(C)cn2)=NC(=O)c2ccc3c(c2)N(C[C@@H]2CC[C@H]21)C[C@@]1(CCCc2cc(Cl)ccc21)CO3 [Example 61]
32 | 0.067 nM | 79.8 nM |  | CO[C@H]1/C=C/C[C@H](C)[C@@H](C)[S@@](=O)(NC(=O)[C@H]2C[C@@](C)(O)C2)=NC(=O)c2ccc3c(c2)N(C[C@@H]2CC[C@H]21)C[C@@]1(CCCc2cc(Cl)ccc21)CO3 [Example 166]
33 | 0.059 nM | 13.8 nM |  | COc1nn(C)cc1C(=O)N[S@@]1(=O)=NC(=O)c2ccc3c(c2)N(C[C@@H]2CC[C@H]2[C@@H](OC)/C=C/[C@H](OCCN(C)C)[C@H](C)C1)C[C@@]1(CCCc2cc(Cl)ccc21)CO3 [Example 403]

Row | Compound | IC50 [1] | EC50 ([2]; Homo sapiens, SK-BR-3, 72 h) | EC50 ([2]; 72 hours)
34 | CO[C@H]1/C=C/CCC[S@@](=O)(NC(=O)CC2CC2)=NC(=O)c2ccc3c(c2)N(C[C@@H]2CC[C@H]21)C[C@@]1(CCCc2cc(Cl)ccc21)CO3 [Example 21] | 0.8 nM | 1300 nM | 
35 | CO[C@H]1/C=C/CCC[S@@](=O)(NC(=O)C2COC2)=NC(=O)c2ccc3c(c2)N(C[C@@H]2CC[C@H]21)C[C@@]1(CCCc2cc(Cl)ccc21)CO3 [Example 24] | 0.2 nM | 891 nM | 
36 | CO[C@H]1/C=C/C[C@H](C)C[S@@](=O)(NC(=O)N2C3COCC2C3)=NC(=O)c2ccc3c(c2)N(C[C@@H]2CC[C@H]21)C[C@@]1(CCCc2cc(Cl)ccc21)CO3 [Example 236] | 0.055 nM | 152 nM | 
